Like-named read-outs stand apart in the source and are kept apart here. Bridge positions count the residues as written; N and C are the ends. Square brackets hold non-standard residues; d marks the D form. Peptide text beside a SMILES is read from it. * marks the point of attachment. Ileψ(thiazoline)Cys = CC[C@H](C)[C@H](N)C1=N[C@H](C(=O)*)CS1; dOrn = NCCC[C@@H](N)C(=O)O
Tests used:
[1] = tested on: B. atropheus spores, Pseudomonas aeruginosa, and Staphylococcus aureus; assay: Bacterial suspension assay, test organisms overall; type: cell-based; details: 33 Units/ml; over the time periods tested
Experimental: Dermacyn is a ready to use product, therefore performing dilutions during testing was not required.
A purchased spore suspension of B. atropheus at 2.5×10^7/ml was used for testing. In addition fresh suspensions of Pseudomonas aeruginosa, and Staphylococcus aureus were prepared and measured using a spectrophotometer to ensure the titer was acceptable
Nine microliters of test substance was added to 100 ul of microbe suspension. The test mixture was held at 20° C. for the contact times of 20 seconds, 5 minutes, and 20 minutes. […] (entire mixture) was added to 9.0 ml of neutralizer for 20 minutes (this is the original neutralization tube or ONT) 1.0 ml of the neutralized test mixture was plated on Tryptic Soy Agar in duplicate for the 5 minute and 20 minute contact times. Additional dilutions and spread plates were used for the 20 second time point, to achieve countable plates.
All plates were incubated at 30° C.-35° C. for a total of 3 days and were evaluated after each day of incubation.

[2] = tested on: murine polychromatic erythrocytes
Description: The mammalian in vivo micronucleus test is used for the identification of substances which cause damage to chromosomes or the mitotic apparatus of murine polychromatic erythrocytes. This damage results in the formation of “micronuclei,” intracellular structures containing lagging chromosome fragments or isolated whole chromosomes. […] All mice were observed immediately after injection for any adverse reactions. […] On day 3, all mice were weighed and terminated.
The femurs were excised from the terminated mice, the bone marrow was extracted, and duplicate smear preparations were performed for each mouse. The bone marrow slides for each animal were read at 40× magnification. The ratio of polychromatic erythrocytes (PCE) to normochromatic erythrocytes (NCE), an index of bone marrow toxicity, was determined for each mouse by counting a total of at least 200 erythrocytes. Then a minimum of 2000 scoreable PCE per mouse were evaluated for the incidence of micronucleated polychromatic erythrocytes. Statistical analysis of the data were done using the Mann and Whitney test (at 5% risk threshold) from a statistical software package (Statview 5.0®, SAS Institute Inc., USA).

[3] = tested on: human diploid fibroblasts (HDFs); assay: Cell viability, apoptosis and necrosis by flow cytometry; type: cell-based; details: 880 mM
Experimental: HP is known to be toxic to eukaryotic cells, increasing apoptosis and necrosis and reducing cellular viability. […] HDF cultures were obtained from three different foreskins, which were pooled and cryopreserved together for the purpose of this study. Only diploid cells were used for all experiments. […] Simultaneous analyses of these parameters were performed in the same cell populations by flow cytometry using: […] B) Annexin V-FITC; and C) Propidium iodide. FIG. 4A-4C disclose percentage values expressed as mean±SD (n=3).

[4] = tested on: human diploid fibroblasts (HDFs); details: 30 min, 500 μM

For CC[C@H](C)[C@H](N)C1=N[C@H](C(=O)N[C@@H](CC(C)C)C(=O)N[C@H](CCC(=O)O)C(=O)N[C@H](C(=O)N[C@H]2CCCCNC(=O)[C@H](CC(N)=O)NC(=O)[C@@H](CC(=O)O)NC(=O)[C@H](Cc3cnc[nH]3)NC(=O)[C@@H](Cc3ccccc3)NC(=O)[C@H]([C@@H](C)CC)NC(=O)[C@@H](CCCN)NC2=O)[C@@H](C)CC)CS1 [Bacitracin] ({Ileψ(thiazoline)Cys}-L[dE]IK[dOrn]I[dF]H[dD]N; lactam 4-C), the “lowering of bacterial or spore populations” value [1] was “no evidence of lowering the bacterial or spore populations”.

With O=P1(N(CCCl)CCCl)NCCCO1 (centres unmarked) [cyclophosphamide] the PCE/NCE ratio ([2]; females, negative controls 1.02) was 0.73, the “number of polychromatic erythrocytes bearing micronuclei” value ([2]; males, negative controls 0.6) was 11.0 and the PCE/NCE ratio ([2]; males, negative controls 0.90) was 0.77.

With OO [HP, hydrogen peroxide] the “Cell viability (7AAD)” value ([3]; 5 min) was 55%, the “necrosis, cells incorporating propidium iodide” value ([3]; 5 min) was 20% and the “Cell viability (7AAD)” value ([3]; 30 min) was 5%. For the same compound, the “necrosis, cells incorporating propidium iodide” value ([3]; 30 min) was 75%, the “GAPDH RT-PCR product” value (human cell cultures) was “little if any GAPDH RT-PCR product” and the “RNA degradation, denaturing gel electrophoresis” value (human cell cultures) was “significant RNA degradation”. For the same compound, the “increase in number of 8-OHdG adducts relative to control-treated or ORP water solution-treated cells” value [4] was “about 25 fold”.

From patent US9782434B2, “Methods of treating or preventing inflammation and hypersensitivity with oxidative reductive potential water solution” (Oculus Innovative Sciences, Inc., priority 2006, dated 2017)
